SMILES strings stand for the structures. A value given as a limit tells only on which side of the number the result lay.

In test [1] the target is T1, human toll like receptor 7 (hTLR7) (Homo sapiens, UniProt Q9NYK1).
T1 construct: host or cells: HEK293 (HEK-Blue hTLR7)
T1 sequence (Q9NYK1 27-1049): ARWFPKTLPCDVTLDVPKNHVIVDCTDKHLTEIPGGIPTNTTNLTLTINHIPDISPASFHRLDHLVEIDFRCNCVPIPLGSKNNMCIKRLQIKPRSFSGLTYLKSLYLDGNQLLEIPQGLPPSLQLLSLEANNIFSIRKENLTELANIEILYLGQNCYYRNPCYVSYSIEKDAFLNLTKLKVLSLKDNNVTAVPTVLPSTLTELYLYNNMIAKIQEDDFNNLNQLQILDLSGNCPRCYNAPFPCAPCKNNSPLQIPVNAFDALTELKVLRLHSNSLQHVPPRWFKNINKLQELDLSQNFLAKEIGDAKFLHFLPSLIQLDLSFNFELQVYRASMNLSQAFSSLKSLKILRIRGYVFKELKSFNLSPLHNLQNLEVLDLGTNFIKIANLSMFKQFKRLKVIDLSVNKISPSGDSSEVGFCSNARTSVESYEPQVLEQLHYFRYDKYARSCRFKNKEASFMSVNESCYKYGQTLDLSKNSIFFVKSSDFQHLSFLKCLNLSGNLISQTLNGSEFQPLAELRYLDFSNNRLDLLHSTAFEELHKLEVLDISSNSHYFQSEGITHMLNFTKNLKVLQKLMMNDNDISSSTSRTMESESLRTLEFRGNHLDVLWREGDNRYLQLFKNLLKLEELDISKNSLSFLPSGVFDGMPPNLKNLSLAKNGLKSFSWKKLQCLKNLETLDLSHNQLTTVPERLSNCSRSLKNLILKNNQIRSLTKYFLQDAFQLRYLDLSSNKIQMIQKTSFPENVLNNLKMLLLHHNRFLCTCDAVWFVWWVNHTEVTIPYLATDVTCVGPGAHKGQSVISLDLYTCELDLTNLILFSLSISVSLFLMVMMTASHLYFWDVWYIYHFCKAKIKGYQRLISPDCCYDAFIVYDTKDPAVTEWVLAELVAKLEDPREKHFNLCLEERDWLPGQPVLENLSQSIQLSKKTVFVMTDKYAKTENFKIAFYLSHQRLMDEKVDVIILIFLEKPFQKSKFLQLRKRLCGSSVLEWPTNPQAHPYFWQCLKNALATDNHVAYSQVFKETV
The test is described as follows: hTLR7 in-vitro functional assay (HEK-Blue hTLR7 SEAP reporter). The following applies: HEK-Blue hTLR7 cells, overnight incubation. The class given is cell-based.

The target of test [2] is T2, human toll like receptor 8 (hTLR8) (Homo sapiens, UniProt Q9NR97).
T2 construct: host or cells: HEK293 (HEK-Blue hTLR8)
T2 sequence (Q9NR97 27-1041): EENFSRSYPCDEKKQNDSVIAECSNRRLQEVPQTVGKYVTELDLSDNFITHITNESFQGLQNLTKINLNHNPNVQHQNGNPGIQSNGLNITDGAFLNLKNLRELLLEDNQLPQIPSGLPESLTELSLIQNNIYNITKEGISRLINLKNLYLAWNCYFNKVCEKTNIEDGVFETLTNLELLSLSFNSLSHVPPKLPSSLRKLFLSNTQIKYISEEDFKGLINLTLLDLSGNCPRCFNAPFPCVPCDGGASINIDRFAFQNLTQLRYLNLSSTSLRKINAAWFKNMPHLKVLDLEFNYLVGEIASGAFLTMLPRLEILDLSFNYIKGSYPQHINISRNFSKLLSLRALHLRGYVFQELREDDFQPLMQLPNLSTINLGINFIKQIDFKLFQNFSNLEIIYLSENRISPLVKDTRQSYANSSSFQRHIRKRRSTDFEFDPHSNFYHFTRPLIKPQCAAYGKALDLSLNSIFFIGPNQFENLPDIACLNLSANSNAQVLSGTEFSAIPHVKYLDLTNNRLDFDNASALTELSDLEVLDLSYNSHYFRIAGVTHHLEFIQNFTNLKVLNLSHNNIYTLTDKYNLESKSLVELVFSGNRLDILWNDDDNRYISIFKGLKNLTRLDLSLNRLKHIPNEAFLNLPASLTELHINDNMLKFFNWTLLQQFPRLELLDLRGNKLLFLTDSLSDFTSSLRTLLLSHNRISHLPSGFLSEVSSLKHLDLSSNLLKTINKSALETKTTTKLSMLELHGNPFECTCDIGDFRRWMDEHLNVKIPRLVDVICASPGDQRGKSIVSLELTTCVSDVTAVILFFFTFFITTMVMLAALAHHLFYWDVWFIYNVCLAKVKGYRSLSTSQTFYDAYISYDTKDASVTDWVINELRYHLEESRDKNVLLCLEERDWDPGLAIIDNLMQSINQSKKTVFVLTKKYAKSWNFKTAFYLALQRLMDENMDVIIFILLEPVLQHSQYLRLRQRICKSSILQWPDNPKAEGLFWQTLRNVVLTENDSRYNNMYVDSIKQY
The test is described as follows: hTLR8 in-vitro functional assay (HEK-Blue hTLR8 SEAP reporter). The class given is cell-based. The conditions noted are these: HEK-Blue hTLR8 cells, overnight incubation.

A word on the EC50: it is the concentration at which the effect is half-maximal. In the case of `CCCCc1nc2c(N)nc3cc(CCCN4CCN(CCCOCCOCCOCCOCCNC(=O)O[C@H]5CC[C@@]6(C)C(=CC[C@H]7[C@@H]8CC[C@H]([C@H](C)CCCC(C)C)[C@@]8(C)CC[C@@H]76)C5)CC4)ccc3c2n1CC(C)(CO)CO` [Compound 22, (20R)-cholest-5-en-3beta-yl {15-[4-(3-{4-amino-2-butyl-1-[3-hydroxy-2-(hydroxymethyl)-2-methylpropyl]-1H-imidazo[4,5-c]quinolin-7-yl}propyl)piperazin-1-yl]-3,6,9,12-tetraoxapentadecan-1-yl}carbamate], the 50% effective concentration (EC50) in test [1] came to 1160 nM; in test [2] it was 11700 nM.
On the same counts, the results for `CCCCc1nc2c(N)nc3cc(CCCN4CCN(CCCOCCOCCOCCOCCOCCOCCOCCOCCOCCOCCOCCOCCOCCOCCOCCOCCOCCOCCOCCOCCOCCOCCOCCOCCNC(=O)O[C@H]5CC[C@@]6(C)C(=CC[C@H]7[C@@H]8CC[C@H]([C@H](C)CCCC(C)C)[C@@]8(C)CC[C@@H]76)C5)CC4)ccc3c2n1CC(C)(CO)CO` [Compound 16, (20R)-cholest-5-en-3beta-yl {75-[4-(3-{4-amino-2-butyl-1-[3-hydroxy-2-(hydroxymethyl)-2-methylpropyl]-1H-imidazo[4,5-c]quinolin-7-yl}propyl)piperazin-1-yl]-3,6,9,12,15,18,21,24,27,30,33,36,39,42,45,48,51,54,57,60,63,66,69,72-tetracosaoxapentaheptacontan-1-yl}carbamate] are 278 nM and more than 25000 nM.
For `CCCCc1nc2c(N)nc3cc(CCCN4CCN(C(=O)CCOCCOCCOCCOCCOCCOCCOCCOCCOCCOCCOCCOCCNC(=O)O[C@H]5CC[C@@]6(C)C(=CC[C@H]7[C@@H]8CC[C@H]([C@H](C)CCCC(C)C)[C@@]8(C)CC[C@@H]76)C5)CC4)ccc3c2n1CC(C)(CO)CO` [Compound 20, (20R)-cholest-5-en-3beta-yl {39-[4-(3-{4-amino-2-butyl-1-[3-hydroxy-2-(hydroxymethyl)-2-methylpropyl]-1H-imidazo[4,5-c]quinolin-7-yl}propyl)piperazin-1-yl]-39-oxo-3,6,9,12,15,18,21,24,27,30,33,36-dodecaoxanonatriacontan-1-yl}carbamate] the same measures were 443 nM and 21800 nM.
For `CCCCc1nc2c(N)nc3cc(CCCN4CCN(C(=O)CCOCCOCCOCCOCCOCCOCCOCCOCCOCCOCCOCCOCCOCCOCCOCCOCCOCCOCCOCCOCCOCCOCCOCCOCCOCCOCCOCCOCCOCCOCCOCCOCCOCCOCCOCCOCCNC(=O)CCOCCOCCOCCOCCNC(=O)O[C@H]5CC[C@@]6(C)C(=CC[C@H]7[C@@H]8CC[C@H]([C@H](C)CCCC(C)C)[C@@]8(C)CC[C@@H]76)C5)CC4)ccc3c2n1CC(C)(CO)CO` [Compound 3, (3beta)-cholest-5-en-3-yl {127-[4-(3-{4-amino-2-butyl-1-[3-hydroxy-2-(hydroxymethyl)-2-methylpropyl]-1H-imidazo[4,5-c]quinolin-7-yl}propyl)piperazin-1-yl]-15,127-dioxo-3,6,9,12,19,22,25,28,31,34,37,40,43,46,49,52,55,58,61,64,67,70,73,76,79,82,85,88,91,94,97,100,103,106,109,112,115,118,121,124-tetracontaoxa-16-azaheptacosahect-1-yl}carbamate] the same measures were 53 nM and 339 nM.
Consider `CCCCc1nc2c(N)nc3cc(CCCN4CCN(Cc5ccc(NC(=O)[C@H](CCCNC(N)=O)NC(=O)[C@@H](NC(=O)COCCOCCNC(=O)O[C@H]6CC[C@@]7(C)C(=CC[C@H]8[C@@H]9CC[C@H]([C@H](C)CCCC(C)C)[C@@]9(C)CC[C@@H]87)C6)C(C)C)cc5)CC4)ccc3c2n1CC(C)(CO)CO` [Compound 29, (3beta)-cholest-5-en-3-yl ((6S,9S)-1-amino-6-((4-((4-(3-(4-amino-2-butyl-1-(3-hydroxy-2-(hydroxymethyl)-2-methylpropyl)-1H-imidazo[4,5-c]quinolin-7-yl)propyl)piperazin-1-yl)methyl)phenyl)carbamoyl)-9-isopropyl-1,8,11-trioxo-13,16-dioxa-2,7,10-triazaoctadecan-18-yl)carbamate], for which the values for the EC50 in test [1] and in test [2] were 527 nM and 5030 nM, respectively.
On the same counts, the results for `CCCCc1nc2c(N)nc3cc(CCCN4CCN(CCCOCCOCCOCCOCCOCCOCCOCCOCCNC(=O)O[C@H]5CC[C@@]6(C)C(=CC[C@H]7[C@@H]8CC[C@H]([C@H](C)CCCC(C)C)[C@@]8(C)CC[C@@H]76)C5)CC4)ccc3c2n1CC(C)(CO)CO` [Compound 23, (20R)-cholest-5-en-3beta-yl {27-[4-(3-{4-amino-2-butyl-1-[3-hydroxy-2-(hydroxymethyl)-2-methylpropyl]-1H-imidazo[4,5-c]quinolin-7-yl}propyl)piperazin-1-yl]-3,6,9,12,15,18,21,24-octaoxaheptacosan-1-yl}carbamate] are 1680 nM and 14900 nM.
On the same counts, the results for `CCCCc1nc2c(N)nc3cc(CCCN4CCN(CCCOCCOCCOCCOCCOCCOCCOCCOCCOCCOCCOCCOCCNC(=O)O[C@H]5CC[C@@]6(C)C(=CC[C@H]7[C@@H]8CC[C@H]([C@H](C)CCCC(C)C)[C@@]8(C)CC[C@@H]76)C5)CC4)ccc3c2n1CC(C)(CO)CO` [Compound 21, (20R)-cholest-5-en-3beta-yl {39-[4-(3-{4-amino-2-butyl-1-[3-hydroxy-2-(hydroxymethyl)-2-methylpropyl]-1H-imidazo[4,5-c]quinolin-7-yl}propyl)piperazin-1-yl]-3,6,9,12,15,18,21,24,27,30,33,36-dodecaoxanonatriacontan-1-yl}carbamate] are 533 nM and more than 25000 nM.

These data come from patent US20250135006A1, “AMPHIPHILIC TLR7/8 ADJUVANTS AND USES THEREOF” (Pfizer Inc., priority 2023, published 2025).
